Experimental findings from US20240131168A1, “NAPHTHALENE RING-CONTAINING COMPOUND, PHARMACEUTICAL COMPOSITION CONTAINING SAME, AND USE THEREOF” (JIANGSU YAHONG MEDITECH CO., LTD., priority 2021, published 2024) are described below.

The test has as its target T1, ERα (Homo sapiens, UniProt P03372).
T1 construct: MCF-7 (ATCC; Cat. No.: HTB-22), a Luminal A breast cancer cell; culture medium EMEM; host or cells: MCF-7
T1 sequence (P03372 1-595): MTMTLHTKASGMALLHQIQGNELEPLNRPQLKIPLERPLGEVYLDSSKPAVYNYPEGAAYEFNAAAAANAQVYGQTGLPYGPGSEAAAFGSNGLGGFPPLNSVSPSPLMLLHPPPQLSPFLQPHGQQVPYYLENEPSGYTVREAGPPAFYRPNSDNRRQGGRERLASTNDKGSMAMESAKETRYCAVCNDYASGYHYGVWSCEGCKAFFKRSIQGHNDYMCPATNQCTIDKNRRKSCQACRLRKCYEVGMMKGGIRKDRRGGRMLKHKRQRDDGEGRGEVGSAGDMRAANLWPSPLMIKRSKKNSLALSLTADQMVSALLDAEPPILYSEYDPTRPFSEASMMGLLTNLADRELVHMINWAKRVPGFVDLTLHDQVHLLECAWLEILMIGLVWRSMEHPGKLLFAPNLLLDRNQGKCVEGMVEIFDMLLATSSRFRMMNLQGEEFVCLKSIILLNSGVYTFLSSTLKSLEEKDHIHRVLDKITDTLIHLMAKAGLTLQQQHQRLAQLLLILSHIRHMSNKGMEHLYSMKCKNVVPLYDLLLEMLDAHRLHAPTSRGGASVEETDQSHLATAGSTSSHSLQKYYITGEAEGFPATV
Description: iELISA of ER degradation in MCF-7 cells (Effect Example 1). It counts as cell-based. Particulars: MCF-7 iELISA, processing time 4 hours, starting concentration 1 μM; for Dmax: MCF7; for DC50: read-out: DC50 (drug concentration corresponding to 50% protein degradation). From the text: 1. Cell Line • Breast cancer cell line and its culture medium: • MCF-7 (ATCC; Cat. No.: HTB-22), a Luminal A breast cancer cell; culture medium EMEM.
2. Reagents • Culture medium EMEM (Gibco, 1964507) • Fetal bovine serum (Gibco, 10091148) • Penicillin-streptomycin double antibody (Gibco, S110JV) • DPBS (Gibco, 14190-144) • CellTiter-Glo® assay kit (Promega, G7573) • Trypsin (0.25%) (Gibco, 25200-056) • DMSO (Sigma, D2650)
3. Instruments • Biosafety cabinet (AIRTECH, BSC-1300A II) • Automated cell counter (Life Technologies, countess II) • Multifunctional microplate reader (Biotek, H1FM) • Orbital shaker (Hangzhou Allsheng Instruments Co., Ltd., OS-100) • XLFIT 5.3 (Inforstack Shanghai Co., Ltd.)
For this test method, the following experiments were performed in a biosafety cabinet, with the specific steps as follows: • (1) On the first day, cells were inoculated in a 96-well plate, the previous culture medium was poured off, 5 mL of DPBS was added to wash the cells, and then DPBS was pipetted and discarded. 1 mL of trypsin (0.25%) was then added. The plate was digested in a 37° C., 5% CO2 cell incubator for about 2 to 5 minutes and then taken out. A new corresponding culture medium was added, and pipetted up and down to resuspend the cells evenly. The cells were then counted using an automated cell counter. • (2) Each cell was inoculated in columns 1 to 12 of a 96-well plate (Corning, Cat. No.: 356690) at a density of 30,000 cells per well in 100 μL of culture medium. The plate was then placed in a 37° C., 5% CO2 incubator for 24 hours. • (3) On the second day, the compound of the present disclosure was 4-fold serially diluted to 10 dose points starting at 1 μM. 10 μL of the serially diluted compound was pipetted and added to 100 μL of cells in columns 1 to 10, and 10 μL of the corresponding culture medium containing 0.33 v % DMSO was added to both columns 11 and 12. The plate was incubated in a 37° C., 5% CO2 incubator for 4 hours (Note: column 11 was used as a MIN well without compound and primary antibody but with secondary antibody; column 12 was used as a MAX well without compound but with primary antibody and secondary antibody). • (4) The culture medium was then removed. The cells were washed once with 100 µL of DPBS, and fixed with 100 μL of 1 v % formaldehyde (CST; Cat. No.: 12606) fixative at room temperature for 30 minutes. • (5) The fixative was removed. The cells were washed once with 100 μL of DPBS, and permeabilized with 100 μL of 80 v % pre-cooled methanol (Jiazu-chemical; Cat. No.: 67-56-1) at 4° C. for 15 minutes. • (6) Methanol was removed, and the cells were washed once with 100 μL of DPBS. The plate was added with 100 μL of primary antibody (1:5000, a volume ratio of primary antibody to BSA; manufacturer of primary antibody: Invitrogen, Cat. No.: MA5-14501), and incubated at 4° C. overnight. • (7) Primary antibody was removed, and the cells were washed three times with […] of DPBS. The plate was added with 100 μL of secondary antibody (1:2500, a volume ratio of secondary antibody to BSA; manufacturer of secondary antibody: Univ, Cat. No.: abs20002), and incubated at room temperature for 1 hour. • (8) Secondary antibody was removed, and the cells were washed three times with […] of DPBS. The plate was added with 100 μL of tetramethylbenzidine (TMB) (CST; Cat. No.: 7004), and incubated at room temperature for 1 hour. • (9) The plate was added with 100 μL of stop buffer (CST; Cat. No.: 7002), and incubated at room temperature for 10 minutes. The OD450 signal value was detected with a multifunctional microplate reader, and finally, the degradation effect of the compound of the present disclosure on ER was plotted by XLFIT software, and the DC50 value of the compound of the present disclosure (drug concentration corresponding to 50% protein degradation) was calculated; Dmax=[(the highest level of ERα−the lowest level of ERα)/(the highest level of ERα)].

Molecules are shown by their SMILES.

A word on the Dmax: it is the largest share of the target that was removed. A lower Dmax goes with shallow degradation. For `C[C@@H]1CN(CCOc2ccc(Oc3c(-c4ccc(S(C)(=O)=O)cc4)ccc4cc(O)ccc34)cc2)[C@@H](C)CN1CCOCC(=O)N1CCN(c2ccc3c(c2)CN(C2CCC(=O)NC2=O)C3=O)CC1` (stereo partly drawn) [Compound D9, 3-(5-(4-(2-(2-((2R,5S)-4-(2-(4-((6-hydroxy-2-(4-(methylsulfonyl)phenyl)naphthalen-1-yl)oxy)phenoxy)ethyl)-2,5-dimethylpiperazin-1-yl)ethoxy)acetyl)piperazin-1-yl)-1-oxoisoindolin-2-yl)piperidine-2,6-dione], the Dmax amounted to 48%.
The same measure, in the same setting: with `CS(=O)(=O)c1ccc(-c2ccc3cc(O)ccc3c2Oc2ccc(OCCOCCOCCOCCOc3ccc4c(c3)C(=O)N(C3CCC(=O)NC3=O)C4)cc2)cc1` (centres unmarked) [Compound D35, 3-(6-(2-(2-(2-(2-(4-((6-hydroxy-2-(4-(methylsulfonyl)phenyl)naphthalen-1-yl)oxy)phenoxy)ethoxy)ethoxy)ethoxy)ethoxy)-1-oxoisoindolin-2-yl)piperidine-2,6-dione] the figure was 32%.
Regarding `CS(=O)(=O)c1ccc(-c2ccc3cc(O)ccc3c2Oc2ccc(OCCCCN3CCN(c4ccc5c(c4)CN(C4CCC(=O)NC4=O)C5=O)CC3)cc2)cc1` (centres unmarked) [Compound D59, 3-(5-(4-(4-(4-((6-hydroxy-2-(4-(methylsulfonyl)phenyl)naphthalen-1-yl)oxy)phenoxy)butyl)piperazin-1-yl)-1-oxoisoindolin-2-yl)piperidine-2,6-dione], the Dmax was 67% and the DC50 was determined as 0.5 nM.
The compound `CCN(CCOCCOCCN1CCN(c2ccc3c(c2)C(=O)N(C2CCC(=O)NC2=O)C3=O)CC1)CCOc1ccc(Oc2c(-c3ccc(S(C)(=O)=O)cc3)ccc3cc(O)ccc23)cc1` (centres unmarked) [Compound D28, 2-(2,6-dioxopiperidin-3-yl)-5-(4-(2-(2-(2-(ethyl(2-(4-((6-hydroxy-2-(4-(methylsulfonyl)phenyl)naphthalen-1-yl)oxy)phenoxy)ethyl)amino)ethoxy)ethoxy)ethyl)piperazin-1-yl)isoindoline-1,3-dione] yielded a Dmax of 34%.
On the same count and under the same terms, with `CCN(CCOc1ccc(Oc2c(-c3ccc(S(C)(=O)=O)cc3)ccc3cc(O)ccc23)cc1)CC(=O)N1CCN(c2ccc3c(c2)C(=O)N(C2CCC(=O)NC2=O)C3=O)CC1` (centres unmarked) [Compound D8, 2-(2,6-dioxopiperidin-3-yl)-5-(4-(N-ethyl-N-(2-(4-((6-hydroxy-2-(4-(methylsulfonyl)phenyl)naphthalen-1-yl)oxy)phenoxy)ethyl)glycyl)piperazin-1-yl)isoindoline-1,3-dione] the figure was 43%; with `CCN(CCCCCN(C)CC(=O)N1CCN(c2ccc3c(c2)C(=O)N(C2CCC(=O)NC2=O)C3=O)CC1)CCOc1ccc(Oc2c(-c3ccc(S(C)(=O)=O)cc3)ccc3cc(O)ccc23)cc1` (centres unmarked) [Compound D31, 2-(2,6-dioxopiperidin-3-yl)-5-(4-(N-(5-(ethyl(2-(4-((6-hydroxy-2-(4-(methylsulfonyl))phenyl)naphthalen-1-yl)oxy)phenoxy)ethyl)aminopentyl)-N-methylglycyl)piperazin-1-yl)isoindoline-1,3-dione], 35%; with `CS(=O)(=O)c1ccc(-c2ccc3cc(O)ccc3c2Oc2ccc(OCCOCCOCCN3CCN(c4ccc5c(c4)CN(C4CCC(=O)NC4=O)C5=O)CC3)cc2)cc1` (centres unmarked) [Compound D30], 35%.
Consider `CS(=O)(=O)c1ccc(-c2ccc3cc(O)ccc3c2Oc2ccc(OCCOCCOCCN3CCN(c4ccc5c(c4)C(=O)N(C4CCC(=O)NC4=O)C5)CC3)cc2)cc1` (centres unmarked) [Compound D22, 3-(6-(4-(2-(2-(2-(4-((6-hydroxy-2-(4-(methylsulfonyl)phenyl)naphthalen-1-yl)oxy)phenoxy)ethoxy)ethoxy)ethyl)piperazin-1-yl)-1-oxoisoindolin-2-yl)piperidine-2,6-dione], for which the Dmax amounted to 54% and the DC50 was 4.9 nM.
In turn, `CS(=O)(=O)c1ccc(-c2ccc3cc(O)ccc3c2Oc2ccc(N3CCN(CCCCCOCC(=O)N4CCN(c5ccc6c(c5)CN(C5CCC(=O)NC5=O)C6=O)CC4)CC3)cc2)cc1` (centres unmarked) [Compound D11, 3-(5-(4-(2-((5-(4-(4-((6-hydroxy-2-(4-(methylsulfonyl)phenyl)naphthalen-1-yl)oxy)phenyl)piperazin-1-yl)pentyl)oxy)acetyl)piperazin-1-yl)-1-oxoisoindolin-2-yl)piperidine-2,6-dione] gave a Dmax of 40%.
Consider `C[C@@H]1CN(CCOCC(=O)N2CCN(c3ccc4c(c3)C(=O)N(C3CCC(=O)NC3=O)C4=O)CC2)[C@@H](C)CN1CCOc1ccc(Oc2c(-c3ccc(S(C)(=O)=O)cc3)ccc3cc(O)ccc23)cc1` (stereo partly drawn) [Compound D15, 2-(2,6-dioxopiperidin-3-yl)-5-(4-(2-(2-((2S,5R)-4-(2-(4-((6-hydroxy-2-(4-(methylsulfonyl)phenyl)naphthalen-1-yl)oxy)phenoxy)ethyl)-2,5-dimethylpiperazin-1-yl)ethoxy)acetyl)piperazin-1-yl)isoindoline-1,3-dione], for which the Dmax came to 60% and the DC50 amounted to 7.6 nM.
Take `CCN(CCOc1ccc(Oc2c(-c3ccc(S(C)(=O)=O)cc3)ccc3cc(O)ccc23)cc1)C(=O)c1ccc(CCC2CCN(C3CCN(c4ccc5c(c4)C(=O)N(C4CCC(=O)NC4=O)C5=O)CC3)CC2)cc1` (centres unmarked) [Compound D34, 4-(2-(1′-(2-(2,6-dioxopiperidin-3-yl)-1,3-dioxoisoindolin-5-yl)-[1,4′-bipiperidin]-4-yl)ethyl)-N-ethyl-N-(2-(4-((6-hydroxy-2-(4-(methylsulfonyl)phenyl)naphthalen-1-yl)oxy)phenoxy)ethyl)benzamide]: the Dmax is 45%.
Same read-out and setting: the value for `CS(=O)(=O)c1ccc(-c2ccc3cc(O)ccc3c2Oc2ccc(OCCOCCOCCOCCN3CCN(c4ccc5c(c4)C(=O)N(C4CCC(=O)NC4=O)C5=O)CC3)cc2)cc1` (centres unmarked) [Compound D19] was 47%.
As for `CS(=O)(=O)c1ccc(-c2ccc3cc(O)ccc3c2Oc2ccc(OCCOCCOCCOCCN3CCN(c4ccc5c(c4)C(=O)N(C4CCC(=O)NC4=O)C5)CC3)cc2)cc1` (centres unmarked) [Compound D21], the Dmax amounted to 69% and the DC50 was found to be 7.5 nM.
